Measured values published in publication PMC9213739, “Substrates and Loaded Iron Ions Relative Position Influence the Catalytic Characteristics of the Metalloenzymes Angelica archangelica Flavone Synthase I and Camellia sinensis Flavonol Synthase” (Frontiers in Pharmacology, 2022).

Key:
CaFLS [1] = biological target: T1, CaFLS (Camellia sinensis, UniProt A0A3G1RNB1); assay: UPLC-MS product formation, Lineweaver-Burk; type: biochemical; conditions: tamarixetin formation (main product); Tris-HCl pH 7.5, 23 °C
T1 construct: gene FLS; synthetic gene in pET-28a(+) (NcoI/XhoI), expressed in E. coli BL21(DE3); 331 residues; mutants carry fragments of AnFNS I
T1 sequence (A0A3G1RNB1 entry or part of it): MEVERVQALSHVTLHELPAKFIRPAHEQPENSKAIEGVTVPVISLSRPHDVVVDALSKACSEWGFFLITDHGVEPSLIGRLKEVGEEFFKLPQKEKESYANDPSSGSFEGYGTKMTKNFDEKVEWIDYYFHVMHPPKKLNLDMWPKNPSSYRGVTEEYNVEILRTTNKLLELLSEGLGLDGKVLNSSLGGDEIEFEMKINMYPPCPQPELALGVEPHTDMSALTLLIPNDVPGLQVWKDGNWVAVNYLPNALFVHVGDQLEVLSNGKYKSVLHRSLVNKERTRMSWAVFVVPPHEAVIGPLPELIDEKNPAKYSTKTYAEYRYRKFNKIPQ
From the text: (§1) UPLC-MS product formation, Lineweaver-Burk on CaFLS

CaFLS [2] = biological target: T1, CaFLS; assay: UPLC-MS product formation, Lineweaver-Burk; type: biochemical; conditions: Tris-HCl pH 7.5, 23 °C
From the text: as §1

Compound: COc1ccc([C@@H]2CC(=O)c3c(O)cc(O)cc3O2)cc1O [hesperetin]
- Km (CaFLS [1]): 68.5 µM
- Km (CaFLS [2]; diosmetin formation (main product)): 65.4 µM
- Km (CaFLS [2]; tamarixetin formation (main product)): 66.4 µM
